From US10884004B2, “Taggable fluorescent probe for calcium ion detection” (The University of Tokyo, priority 2016, dated 2021)

Key:
[1] = in vitro Ca2+ titration of the esterase hydrolysate of Compound 14 in Ca2+ buffer (spectrofluorophotometer); type: binding; details: hydrolysate obtained by esterase treatment; buffer with adjusted Ca2+ concentration (100 mM KCl, 30 mM MOPS)
Procedure: A 100 μL PBS solution containing Compound 14 (final concentration 80 μM), Pluronic F127 (0.2%), and Esterase Pseudomonas fluorescens (0.42 units/μL) (SIGMA) was prepared and hydrolysis reaction was carried out at 37° C. To follow the time course of the reaction, a part of the sample was taken during the reaction and the fluorescence intensity in 10 mM Ca^2+ buffer was measured with a spectrofluorophotometer (JASCO, FP-6500). When the fluorescence intensity ceased to change almost completely, the reaction was stopped to obtain a hydrolysate of Compound 14.
A free Ca^2+ concentration in a buffer containing 100 mM KCl and 30 mM 3-morpholinopropanesulfonic acid (MOPS) was adjusted using a Ca-ethylene glycol tetraacetic acid (EGTA) system (0-1 μM), a Ca-nitrilotriacetic acid (NTA) system (3.2 μM-794.3 μM), an unbuffered system (CaCl2) (3.2 mM-10 mM). The adjustment of free Ca^2+ concentration in the Ca-EGTA system or in the Ca-NTA system was carried out using the following formula (1). […]
In order to evaluate the chemical characteristics of the synthesized Compound 14, a hydrolysate was obtained by esterase treatment according to the above method, and the fluorescence intensity in a buffer in which the Ca^2+ concentration was adjusted was measured with a spectrofluorophotometer.

HEK 293T/Halo-RimZF-CAAX [2] = test: staining / localization in HEK 293T cells expressing HaloTag protein on the cell membrane; type: cell-based; details: 5 μM probe, Ringer's solution, 30 minutes, room temperature
Procedure: (§1) HEK 293T cells (GenHunter) were cultured in Dulbecco's Modified Eagle's Medium (DMEM) (Wako) containing 10% FBS, 4 mM L-glutamine (Wako), and 1 mM sodium pyruvate (Wako) at 37° C. in an atmosphere of 5% CO2. For nerve cells, a fetus was removed from Sprague-Dawley rat on day 21 of pregnancy under anesthesia, and the hippocampus immediately extracted from the fetal brain was digested with trypsin (Invitrogen) and DNase I (Sigma) to separate nerve cells. The nerve cells were cultured on a monolayer of glial cells in a Neurobasal A medium (Invitrogen) containing 2% B-27 supplement (Invitrogen), 1 mM sodium pyruvate (Wako), 1% glutamax (Invitrogen), 1% penicillin-streptomycin mixed solution (nacalai tesque) at 37° C. in an atmosphere of 5% CO2.
Next, a DNA fragment encoding HaloTag and a DNA fragment encoding RimZF were fused by PCR. At this time, a DNA fragment expressing a fusion protein of HaloTag, RimZF, and CAAX motif was obtained by adding a DNA sequence encoding a CAAX motif of the KRas gene (KMSKDGKKKKKKSKTKC-VIM) to the primer. […]
(§2) Fluorescence images were acquired using an inverted microscope (IX-71, Olympus), an EM-CCD camera (Andor, iXon), an objective lens ([…]), and a filter set for RFP. […]

[3] = in situ calibration of the labeled probe in fixed, permeabilized HEK 293T/Halo-RimZF-CAAX; type: cell-based; details: probe labeled on HEK 293T/Halo-RimZF-CAAX, 4% PFA fixed, 20 μM digitonin
Procedure: (§3) HEK 293T cells were seeded in metal rings on a cover glass coated with 0.01% collagen and 25 μg/ml poly-L-lysine (nacalai tesque) 16 hours after gene transfer so that the number of cells per ring was 40,000 and cultured at 37° C. and a carbon dioxide concentration of 5%. Three and a half hours later, the extracellular fluid was replaced with Ringer's solution (5 mM HEPES, 150 mM NaCl, 4 mM KCl, 2 mM CaCl2, 1 mM MgCl2, 0.1% glucose, pH 7.2) containing a Ca^2+ probe (compound 14 or Calcium Green, AM (Invitrogen)) or a fluorescent ligand (halo TMR, halo Oregon) (final concentration 5 μM) and 0.02% Plulonic F127 and left to stand at room temperature for 30 minutes while being shielded from light. The cells labeled with compound 14 and the fluorescent ligand was then exchanged with serum-free DMEM, removal of probes that were liberated at 5% carbon dioxide concentration and 37° C. was carried out for 30 minutes, and the extracellular solution was exchanged again with Ringer's solution. […]
The labeled HEK 293T/Halo-RimZF-CAAX was immobilized with 4% PFA/PBS for 10 minutes, subjected to membrane permeabilization with 20 μM digitonin, and a change in fluorescence when the Ca^2+ concentration of the extracellular solution was changed was measured.
Next, Ca^2+ response characteristics of the labeled probe were evaluated by in situ calibration.

HEK 293T/Halo-RimZF-CAAX [4] = test: Ca2+ imaging on ionomycin stimulation of probe-labeled HEK 293T/Halo-RimZF-CAAX; type: cell-based; details: ionomycin (10 μM); local Ca2+ signal on the cell membrane
Procedure: as §3, with “light.” for “light. The cells labeled with compound 14 and the fluorescent ligand was then exchanged with serum-free DMEM, removal of probes that were liberated at 5% carbon dioxide concentration and 37° C. was carried out for 30 minutes, and the extracellular solution was exchanged again with Ringer's solution.”
as §2
In addition, ionomycin was added to a probe-labeled HEK 293T/Halo-RimZF-CAAX in order to see the response characteristics to the Ca^2+ signal induced by the ionophore, and then changes with time of the fluorescence intensity were measured (FIG. 5). […]

[5] = test system: Rat hippocampus-derived nerve cells; test: Ca2+ imaging on electrical stimulation of probe-labeled hippocampus-derived nerve cells; type: cell-based; details: electrical stimulation 10 times at 100 Hz; HaloTag fusion protein expressed in nerve cells
Procedure: as §1
A DNA fragment obtained by fusing a sequence encoding a HaloTag protein in series on the C-terminal side of the DNA sequence encoding the vesicular membrane […] transporter (VGLUT1) was subcloned into a lentiviral vector (pLenti6PW) to prepare pLenti vglut1-chalo. […]
as §2

## CC(=O)OCOC(=O)COc1cc(NC(=O)c2ccc3c(c2)C(=O)OC32c3cc(Cl)c(OC(C)=O)cc3Oc3cc(N4CC(C(=O)NCCOCCOCCCCCCCl)C4)c(Cl)cc32)ccc1N(CC(=O)OCOC(C)=O)CC(=O)OCOC(C)=O (centres unmarked) [Compound 14, bis(acetoxymethyl) 2,2′-((4-(3′-acetoxy-2′,7′-dichloro-6′-(3-((2-(2-((6-chlorohexyl)oxy)ethoxy)ethyl)carbamoyl)azetidin-1-yl)-3-oxo-3H-spiro[isobenzofuran-1,9′-xanthene]-5-carboxylic acid amido)-2-(2-(acetoxymethoxy)-2-oxoethoxy)phenyl)azanediyl) diacetate]
[1]
  Fmax/Fmin (fluorescence intensity of Ca2+-bound vs unbound probe): 10.8
HEK 293T/Halo-RimZF-CAAX [2]
  localization of fluorescence after staining: fluorescence localized on the cell membrane on which the HaloTag protein is expressed was observed
[3]
  Fmax/Fmin: 4.7
HEK 293T/Halo-RimZF-CAAX [4]
  change in fluorescence intensity due to ionomycin stimulation: increased the fluorescence intensity
[5]
  Ca2+ signal change on electrical stimulation: a Ca^2+ signal change corresponding to the stimulus was observed
